# Assay results taken from US20160333419A1, “GENE SIGNATURES ASSOCIATED WITH SENSITIVITY TO MDM2 INHIBITORS” (DAIICHI SANKYO COMPANY, LIMITED, priority 2014, published 2016).
# pIC50: −log10 of the molar value.
# Legend:
# Test in all cases: OncoPanel cytotoxicity assay
# Format in all cases: cell-based
# 639-V = conditions: Homo sapiens, 72 hour incubation
# Procedure, shortened: (§1)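 Cells grown in RPMI 1640 with 10% FBS (or a special medium) at 37° C, 5% CO2 were treated 24 hours after seeding for 72 hours with 10 concentrations (3.16-fold dilutions, 0.1% DMSO final). Nuclei were dye-stained and imaged; IC50 was fit from percent of control relative cell count.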
# 647-V = conditions: Homo sapiens, 72 hour incubation
# Procedure, shortened: as §1
# A431 = conditions: Homo sapiens, A-431, 72 hour incubation
# Procedure, shortened: as §1
# BHT-101 = conditions: Homo sapiens, 72 hour incubation
# Procedure, shortened: as §1
# CHP-212 = conditions: Homo sapiens, 72 hour incubation
# Procedure, shortened: as §1
# COLO 829 = conditions: Homo sapiens, 72 hour incubation
# Procedure, shortened: as §1
# CRO-AP2 = conditions: Homo sapiens, 72 hour incubation
# Procedure, shortened: as §1
# Cal 27 = conditions: Homo sapiens, 72 hour incubation
# Procedure, shortened: as §1
# Colo 320 HSR = conditions: Homo sapiens, 72 hour incubation
# Procedure, shortened: as §1
# DLD-1 = conditions: Homo sapiens, 72 hour incubation
# Procedure, shortened: as §1
# DU145 = conditions: Homo sapiens, DU-145, 72 hour incubation
# Procedure, shortened: as §1
# EFM-19 = conditions: Homo sapiens, 72 hour incubation
# Procedure, shortened: as §1
# EM-2 = conditions: Homo sapiens, 72 hour incubation
# Procedure, shortened: as §1
# HCT-116 = conditions: Homo sapiens, 72 hour incubation
# Procedure, shortened: as §1
# HLF = conditions: Homo sapiens, 72 hour incubation
# Procedure, shortened: as §1
# HepG2 = conditions: Homo sapiens, 72 hour incubation
# Procedure, shortened: as §1
# Jurkat = conditions: Homo sapiens, 72 hour incubation
# Procedure, shortened: as §1
# L-428 = conditions: Homo sapiens, 72 hour incubation
# Procedure, shortened: as §1
# MOLT-16 = conditions: Homo sapiens, 72 hour incubation
# Procedure, shortened: as §1
# MOLT-3 = conditions: Homo sapiens, 72 hour incubation
# Procedure, shortened: as §1
# NCI-H596 = conditions: Homo sapiens, 72 hour incubation
# Procedure, shortened: as §1
# NCI-H661 = conditions: Homo sapiens, 72 hour incubation
# Procedure, shortened: as §1
# NCI-H747 = conditions: Homo sapiens, 72 hour incubation
# Procedure, shortened: as §1
# RKO-AS45-1 = conditions: Homo sapiens, RKOAS451, 72 hour incubation
# Procedure, shortened: as §1
# RKOE6 = conditions: Homo sapiens, 72 hour incubation
# Procedure, shortened: as §1
# SCaBER = conditions: Homo sapiens, 72 hour incubation
# Procedure, shortened: as §1
# SJRH30 = conditions: Homo sapiens, 72 hour incubation
# Procedure, shortened: as §1
# SJSA1 = conditions: Homo sapiens, SJSA-1, 72 hour incubation
# Procedure, shortened: as §1
# SK-MEL-28 = conditions: Homo sapiens, 72 hour incubation
# Procedure, shortened: as §1
# SK-N-DZ = conditions: Homo sapiens, 72 hour incubation
# Procedure, shortened: as §1
# SKOV3 = conditions: Homo sapiens, SK-OV-3, 72 hour incubation
# Procedure, shortened: as §1
# SW1088 = conditions: Homo sapiens, 72 hour incubation
# Procedure, shortened: as §1
# SW403 = conditions: Homo sapiens, SW-403, 72 hour incubation
# Procedure, shortened: as §1
# SW837 = conditions: Homo sapiens, 72 hour incubation
# Procedure, shortened: as §1
# SW872 = conditions: Homo sapiens, 72 hour incubation
# Procedure, shortened: as §1
# SW900 = conditions: Homo sapiens, 72 hour incubation
# Procedure, shortened: as §1
# SaOS2 = conditions: Homo sapiens, SAOS-2, 72 hour incubation
# Procedure, shortened: as §1
# TE 381.T = conditions: Homo sapiens, 72 hour incubation
# Procedure, shortened: as §1
# Y79 = conditions: Homo sapiens, 72 hour incubation
# Procedure, shortened: as §1
SMILES,pIC50 (639-V),pIC50 (647-V),pIC50 (A431),pIC50 (BHT-101),pIC50 (CHP-212),pIC50 (COLO 829),pIC50 (CRO-AP2),pIC50 (Cal 27),pIC50 (Colo 320 HSR),pIC50 (DLD-1),pIC50 (DU145),pIC50 (EFM-19),pIC50 (EM-2),pIC50 (HCT-116),pIC50 (HLF),pIC50 (HepG2),pIC50 (Jurkat),pIC50 (L-428),pIC50 (MOLT-16),pIC50 (MOLT-3),also measured
"CC[C@@H]1CNC2(CC2)CN1C(=O)[C@@H]1C[C@@H](F)CN1C(=O)C1=C(C(C)C)N2C(=N[C@@](C)(c3ccc(Cl)nc3)[C@H]2c2ccc(Cl)c(F)c2)S1 [Compound A, [(5R,6S)-5-(4-Chloro-3-fluorophenyl)-6-(6-chloropyridin-3-yl)-6-methyl-3-(propan-2-yl)-5,6-dihydroimidazo[2,1-b][1,3]thiazol-2-yl][(2S,4R)-2-{[(6R)-6-ethyl-4,7-diazaspiro[2.5]oct-7-yl]carbonyl}-4-fluoropyrrolidin-1-yl]methanone]",< 4.40,< 4.40,< 4.40,< 4.40,6.71,6.54,6.69,< 4.40,< 4.40,< 4.40,< 4.40,< 4.40,< 4.40,6.19,< 4.40,6.47,< 4.40,< 4.40,6.63,6.22,pIC50 (NCI-H596): < 4.40; pIC50 (NCI-H661): < 4.40; pIC50 (NCI-H747): < 4.40; pIC50 (RKO-AS45-1): 6.33; pIC50 (RKOE6): 4.42; pIC50 (SCaBER): < 4.40; pIC50 (SJRH30): < 4.40; pIC50 (SJSA1): 6.67; pIC50 (SK-MEL-28): < 4.40; pIC50 (SK-N-DZ): < 4.40; pIC50 (SKOV3): < 4.40; pIC50 (SW1088): < 4.40; pIC50 (SW403): < 4.40; pIC50 (SW837): < 4.40; pIC50 (SW872): < 4.40; pIC50 (SW900): < 4.40; pIC50 (SaOS2): < 4.40; pIC50 (TE 381.T): 4.43; pIC50 (Y79): 5.98
"CC1(C)CCC2(CC1)N[C@@H](C(=O)N[C@@H]1CC[C@@H](C(N)=O)OC1)[C@H](c1ccnc(Cl)c1F)[C@]21C(=O)Nc2cc(Cl)ccc21 [Compound B, (3′R,4′S,5′R)—N-[(3R,6S)-6-carbamoyltetrahydro-2H-pyran-3-yl]-6″-chloro-4′-(2-chloro-3-fluoropyridin-4-yl)-4,4-dimethyl-2″-oxo-1″,2″-dihydrodispiro[cyclohexane-1,2′-pyrrolidine-3′,3″-indole]-5′-carboxamide]",5.19,< 5.00,< 5.00,< 5.00,7.53,7.58,7.72,< 5.00,< 5.00,5.05,5.10,< 5.00,< 5.00,7.30,< 5.00,7.23,< 5.00,< 5.00,7.22,7.48,pIC50 (NCI-H596): < 5.00; pIC50 (NCI-H661): 5.18; pIC50 (NCI-H747): < 5.00; pIC50 (RKO-AS45-1): 7.13; pIC50 (RKOE6): 5.12; pIC50 (SCaBER): < 5.00; pIC50 (SJRH30): 5.14; pIC50 (SJSA1): 7.58; pIC50 (SK-MEL-28): < 5.00; pIC50 (SK-N-DZ): < 5.00; pIC50 (SKOV3): < 5.00; pIC50 (SW1088): 5.04; pIC50 (SW403): < 5.00; pIC50 (SW837): < 5.00; pIC50 (SW872): < 5.00; pIC50 (SW900): < 5.00; pIC50 (SaOS2): < 5.00; pIC50 (TE 381.T): 5.01; pIC50 (Y79): 6.80
